Experimental data as given in ChEMBL document CHEMBL1201862, “PubChem BioAssay data set” (2004).
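Where inhibition never reached the appropriate level, the endpoint shown equals the highest concentration tested. Otherwise, values were interpolated linearly from a five-concentration, 48-hour dose response in 96-well plates. GI50 is the concentration that inhibits growth by half.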 Active and inactive are the calls of the source. Rule as the data show it: active = GI50 up to about 1.1 µM and inactive = higher.

How the values were obtained:
Experiment in all cases: NCI-60 cell line screen, 48 h
HCT-116 = test system: HCT-116
SK-MEL-28 = test system: SK-MEL-28
LOX IMVI = test system: LOX IMVI
CAKI-1 = test system: CAKI-1
OVCAR-8 = test system: OVCAR-8
IGROV-1 = test system: IGROV-1
SK-MEL-2 = test system: SK-MEL-2
SNB-19 = test system: SNB-19
MCF7 = test system: MCF7
MDA-MB-435 = test system: MDA-MB-435
A498 = test system: A498
TK-10 = test system: TK-10
SN12C = test system: SN12C
SF-268 = test system: SF-268
SNB-75 = test system: SNB-75
DU-145 = test system: DU-145
EKVX = test system: EKVX
KM12 = test system: KM12
HCC 2998 = test system: HCC 2998

Measured: GI50

O=CNc1ncn[nH]1
inactive: HCT-116 > 100 µM | SK-MEL-28 > 100 µM | LOX IMVI > 100 µM | CAKI-1 > 100 µM | OVCAR-8 > 100 µM | IGROV-1 > 100 µM | SK-MEL-2 > 100 µM | SNB-19 > 100 µM | MCF7 > 100 µM | MDA-MB-435 > 100 µM | A498 > 100 µM | TK-10 > 100 µM | SN12C > 100 µM | SF-268 > 100 µM | SNB-75 > 100 µM | DU-145 > 100 µM | EKVX > 100 µM | KM12 > 100 µM

COc1cc(NCC2COc3c(ccc(OC)c3OC)C2=O)c([N+](=O)[O-])cc1OC (stereo not drawn)
inactive: HCT-116 > 100 µM | SK-MEL-28 > 100 µM | LOX IMVI > 100 µM | CAKI-1 > 100 µM | OVCAR-8 > 100 µM | IGROV-1 > 100 µM | SK-MEL-2 > 100 µM | SNB-19 > 100 µM | MCF7 39.3 µM | MDA-MB-435 > 100 µM | A498 > 100 µM | TK-10 > 100 µM | SN12C 70.1 µM | SF-268 67.3 µM | SNB-75 60.1 µM | DU-145 > 100 µM | EKVX 95.1 µM | KM12 > 100 µM

O=C1CC2C(=O)c3ccccc3CC2c2ccccc21 (stereo not drawn)
inactive: HCT-116 38.6 µM | SK-MEL-28 70.6 µM | LOX IMVI 38.5 µM | OVCAR-8 39.5 µM | IGROV-1 27 µM | SK-MEL-2 87.1 µM | SNB-19 > 100 µM | MCF7 37.2 µM | MDA-MB-435 24.1 µM | A498 48.8 µM | TK-10 87.9 µM | SN12C 55.3 µM | SF-268 56.8 µM | SNB-75 6.49 µM | DU-145 50.5 µM | EKVX 46.1 µM | KM12 40.6 µM

CCC(C)(O)c1cnc(CC(C)C)c(=O)n1O (stereo not drawn)
inactive: HCT-116 44.9 µM | SK-MEL-28 63.5 µM | LOX IMVI 33.8 µM | CAKI-1 43.8 µM | OVCAR-8 34 µM | IGROV-1 63 µM | SK-MEL-2 57.3 µM | SNB-19 55.8 µM | MDA-MB-435 57.7 µM | A498 > 100 µM | TK-10 97.7 µM | SN12C 35.1 µM | SF-268 36.8 µM | SNB-75 31.6 µM | DU-145 > 100 µM | HCC 2998 40.7 µM | EKVX 49.4 µM | KM12 37.7 µM

NC1CC=C(COC(=O)C(O)(c2ccccc2)C2CC2)CC1 (stereo not drawn)
inactive: HCT-116 > 100 µM | SK-MEL-28 > 100 µM | LOX IMVI > 100 µM | CAKI-1 > 100 µM | OVCAR-8 > 100 µM | IGROV-1 > 100 µM | SNB-19 > 100 µM | MCF7 > 100 µM | TK-10 > 100 µM | SN12C > 100 µM | SF-268 > 100 µM | SNB-75 > 100 µM | DU-145 > 100 µM | HCC 2998 > 100 µM | EKVX > 100 µM | KM12 > 100 µM

C=C1CCC2[C@](C)(CCC[C@]2(C)C(=O)O)[C@@H]1CCc1ccoc1 (stereo partly drawn)
inactive: HCT-116 33.7 µM | SK-MEL-28 61.1 µM | LOX IMVI 16.9 µM | CAKI-1 32.8 µM | IGROV-1 32.4 µM | SK-MEL-2 29.4 µM | SNB-19 43.5 µM | MDA-MB-435 41.3 µM | A498 47 µM | TK-10 24.2 µM | SN12C 33.5 µM | SF-268 50.4 µM | SNB-75 67.3 µM | DU-145 43.5 µM | HCC 2998 43.8 µM | EKVX 34.3 µM | KM12 18.7 µM

COCCN1C(=O)C2c3[nH]c4ccccc4c3C3CCC(C(C)(C)C)CC3C2C1=O (stereo not drawn)
inactive: HCT-116 16.4 µM | SK-MEL-28 17.5 µM | CAKI-1 23.1 µM | OVCAR-8 20.7 µM | IGROV-1 23.2 µM | SNB-19 19.1 µM | MCF7 18.4 µM | MDA-MB-435 18.7 µM | TK-10 > 10 µM | SN12C 17.1 µM | SF-268 19.2 µM | SNB-75 17.5 µM | DU-145 19.1 µM | HCC 2998 19.3 µM | EKVX 17.9 µM | KM12 19.2 µM

CC(C)=C1C(=O)c2c(Cl)sc(Cl)c2C1=O
inactive: HCT-116 17.2 µM | SK-MEL-28 21.7 µM | LOX IMVI 18.2 µM | CAKI-1 18.3 µM | OVCAR-8 19.7 µM | IGROV-1 21.9 µM | SK-MEL-2 20 µM | MCF7 41.2 µM | MDA-MB-435 18.6 µM | A498 > 100 µM | TK-10 32.5 µM | SN12C 20.7 µM | SF-268 30.2 µM | SNB-75 18.4 µM | DU-145 22.4 µM | EKVX 27.7 µM | KM12 16.5 µM

C=C[C@@H]1C[C@]2(C(=O)OC)Cc3nc4ccccc4nc3CC(C(=O)OC)=C2O1
inactive: HCT-116 > 100 µM | SK-MEL-28 53.8 µM | LOX IMVI 45.6 µM | CAKI-1 > 100 µM | OVCAR-8 > 100 µM | IGROV-1 61.2 µM | SK-MEL-2 > 100 µM | SNB-19 > 100 µM | MCF7 40.6 µM | MDA-MB-435 47.8 µM | A498 > 100 µM | TK-10 > 100 µM | SN12C > 100 µM | SF-268 > 100 µM | DU-145 > 100 µM | EKVX > 100 µM | KM12 75.5 µM

Cc1ccc(C2=C(c3ccccc3)C(Br)(c3ccccc3)C(c3ccccc3)=C2c2ccc(C)cc2)cc1
inactive: HCT-116 > 100 µM | SK-MEL-28 > 100 µM | CAKI-1 > 100 µM | OVCAR-8 > 100 µM | IGROV-1 > 100 µM | SK-MEL-2 > 100 µM | SNB-19 > 100 µM | A498 > 100 µM | TK-10 > 100 µM | SN12C > 100 µM | SF-268 > 100 µM | SNB-75 > 100 µM | EKVX > 100 µM | KM12 > 100 µM

CC1(C)C[C@@H]2C1CCC1(C)CC2(O)CC[C@H]1O (stereo partly drawn)
inactive: SK-MEL-28 > 100 µM | LOX IMVI > 100 µM | CAKI-1 > 100 µM | OVCAR-8 > 100 µM | IGROV-1 > 100 µM | SK-MEL-2 > 100 µM | SNB-19 > 100 µM | MCF7 > 100 µM | MDA-MB-435 > 100 µM | TK-10 > 100 µM | SN12C > 100 µM | SF-268 > 100 µM | SNB-75 > 100 µM | EKVX > 100 µM | KM12 > 100 µM

Oc1ccc(-c2nc3ccc(F)cc3s2)cc1
inactive: HCT-116 18.2 µM | LOX IMVI 20.4 µM | CAKI-1 19.7 µM | OVCAR-8 19.4 µM | IGROV-1 16.9 µM | SK-MEL-2 19.1 µM | SNB-19 19.3 µM | MCF7 17.5 µM | MDA-MB-435 20.4 µM | TK-10 16 µM | SN12C 18.4 µM | SF-268 23.2 µM | DU-145 15.2 µM | EKVX 10.8 µM | KM12 15.7 µM
